Assays:
SK-MEL-2 = assay: Cytotoxicity against human SK-MEL-2 cells after 48 hrs by sulforhodamine B assay; assay type: cell-based; settings: sk-mel-2, 48 h
SK-MEL-28 = assay: Cytotoxicity against human SK-MEL-28 cells after 48 hrs by sulforhodamine B assay; assay type: cell-based; settings: sk-mel-28, 48 h
SK-MEL-5 = assay: Cytotoxicity against human SK-MEL-5 cells after 48 hrs by sulforhodamine B assay; assay type: cell-based; settings: sk-mel-5, 48 h
OVCAR-4 = assay: Cytotoxicity against human OVCAR4 cells after 48 hrs by sulforhodamine B assay; assay type: cell-based; settings: ovcar-4, 48 h
OVCAR-5 [1] = assay: Cytotoxicity against human OVCAR5 cells after 48 hrs by sulforhodamine B assay; assay type: cell-based; settings: ovcar-5, 48 h
TK-10 = assay: Cytotoxicity against human TK10 cells after 48 hrs by sulforhodamine B assay; assay type: cell-based; settings: tk-10, 48 h
UO-31 = assay: Cytotoxicity against human UO31 cells after 48 hrs by sulforhodamine B assay; assay type: cell-based; settings: uo-31, 48 h
A549 = assay: Growth inhibition of human A549 cells after 48 hrs by sulforhodamine B assay; assay type: functional; settings: A549, 48 h
HOP-62 = assay: Growth inhibition of human HOP62 cells after 48 hrs by sulforhodamine B assay; assay type: functional; settings: HOP-62, 48 h
[2] = target: Serine/threonine-protein kinase B-raf (Homo sapiens) (UniProt P15056); assay: Binding affinity to human BRAF at 10 uM incubated for 1 hr by kinase binding assay relative to untreated control
[3] = test system: Serine/threonine-protein kinase B-raf (Homo sapiens), P15056 [V600E]; assay: Binding affinity to human BRAF V600E mutant at 10 uM incubated for 1 hr by kinase binding assay relative to untreated control
[4] = target: Cyclin-dependent kinase 8 (Homo sapiens) (UniProt P49336); assay: Binding affinity to human CDK8 at 10 uM incubated for 1 hr by kinase binding assay relative to untreated control
[5] = target: Casein kinase I isoform alpha (Homo sapiens) (UniProt P48729); assay: Binding affinity to human CSNK1A1 at 10 uM incubated for 1 hr by kinase binding assay relative to untreated control
[6] = target: Casein kinase I isoform delta (Homo sapiens) (UniProt P48730); assay: Binding affinity to human CSNK1D at 10 uM incubated for 1 hr by kinase binding assay relative to untreated control
[7] = target: Casein kinase I isoform gamma-2 (Homo sapiens) (UniProt P78368); assay: Binding affinity to human CSNK1G2 at 10 uM incubated for 1 hr by kinase binding assay relative to untreated control
[8] = target: Receptor-type tyrosine-protein kinase FLT3 (Homo sapiens) (UniProt P36888); assay: Binding affinity to human FLT3 at 10 uM incubated for 1 hr by kinase binding assay relative to untreated control
NCI-H522 [9] = assay: Growth inhibition of human NCI-H522 cells after 48 hrs by sulforhodamine B assay; assay type: functional; settings: NCI-H522, 48 h
COLO 205 = assay: Growth inhibition of human COLO205 cells after 48 hrs by sulforhodamine B assay; assay type: functional; settings: COLO 205, 48 h
HT-29 = assay: Growth inhibition of human HT-29 cells after 48 hrs by sulforhodamine B assay; assay type: functional; settings: HT-29, 48 h
SNB-75 [10] = assay: Growth inhibition of human SNB75 cells after 48 hrs by sulforhodamine B assay; assay type: functional; settings: SNB-75, 48 h
OVCAR-5 [11] = assay: Growth inhibition of human OVCAR5 cells after 48 hrs by sulforhodamine B assay; assay type: functional; settings: OVCAR-5, 48 h
SK-OV-3 = assay: Growth inhibition of human SKOV3 cells after 48 hrs by sulforhodamine B assay; assay type: functional; settings: SK-OV-3, 48 h
A498 = assay: Growth inhibition of human A498 cells after 48 hrs by sulforhodamine B assay; assay type: functional; settings: A498, 48 h
[12] = target: Platelet-derived growth factor receptor beta (Homo sapiens) (UniProt P09619); assay: Binding affinity to human PDGFRB at 10 uM incubated for 1 hr by kinase binding assay relative to untreated control
[13] = target: T1, Receptor-interacting serine/threonine-protein kinase 1 (Homo sapiens) (UniProt Q13546); assay: Binding affinity to human RIPK1 at 10 uM incubated for 1 hr by kinase binding assay relative to untreated control
T1 sequence (whole entry): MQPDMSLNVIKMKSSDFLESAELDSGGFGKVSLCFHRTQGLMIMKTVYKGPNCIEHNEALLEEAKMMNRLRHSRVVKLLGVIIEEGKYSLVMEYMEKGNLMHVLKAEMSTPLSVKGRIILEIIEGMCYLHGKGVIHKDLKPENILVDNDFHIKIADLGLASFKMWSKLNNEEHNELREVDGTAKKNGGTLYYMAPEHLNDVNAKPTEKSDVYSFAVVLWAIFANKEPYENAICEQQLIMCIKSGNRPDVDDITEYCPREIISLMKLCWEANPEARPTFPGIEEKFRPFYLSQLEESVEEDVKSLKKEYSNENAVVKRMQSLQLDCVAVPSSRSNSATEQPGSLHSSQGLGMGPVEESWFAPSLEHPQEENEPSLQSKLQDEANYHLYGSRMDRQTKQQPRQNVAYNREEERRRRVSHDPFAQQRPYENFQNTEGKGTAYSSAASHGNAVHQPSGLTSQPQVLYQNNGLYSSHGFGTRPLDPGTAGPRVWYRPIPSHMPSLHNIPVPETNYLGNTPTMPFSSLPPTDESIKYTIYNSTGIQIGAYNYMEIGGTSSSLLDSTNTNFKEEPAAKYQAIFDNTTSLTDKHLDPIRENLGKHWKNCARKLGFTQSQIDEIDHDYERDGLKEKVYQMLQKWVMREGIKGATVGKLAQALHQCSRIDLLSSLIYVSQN

ACHN = assay: Growth inhibition of human ACHN cells after 48 hrs by sulforhodamine B assay; assay type: functional
T47D = assay: Growth inhibition of human T47D cells after 48 hrs by sulforhodamine B assay; assay type: functional
K562 = assay: Cytotoxicity against human K562 cells after 48 hrs by sulforhodamine B assay; assay type: cell-based; settings: k562, 48 h
[14] = target: Tyrosine-protein kinase ABL1 (Homo sapiens) (UniProt P00519); assay: Inhibition of human ABL using gamma-33P-ATP as substrate assessed as enzyme functional activity at 1 uM by scintillation counting relative to untreated control; set-up: scale not given: the % may be the effect or the level left
[15] = target: Hepatocyte growth factor receptor (Homo sapiens, UniProt P08581); assay: Inhibition of human MET using gamma-33P-ATP as substrate assessed as enzyme functional activity at 1 uM by scintillation counting relative to untreated control; set-up: scale not given: the % may be the effect or the level left
NCI-H23 = assay: Cytotoxicity against human NCI-H23 cells after 48 hrs by sulforhodamine B assay; assay type: cell-based; settings: nci-h23, 48 h
NCI-H522 [16] = assay: Cytotoxicity against human NCI-H522 cells after 48 hrs by sulforhodamine B assay; assay type: cell-based; settings: nci-h522, 48 h
HCC 2998 = assay: Cytotoxicity against human HCC2998 cells after 48 hrs by sulforhodamine B assay; assay type: cell-based; settings: hcc 2998, 48 h
SF-268 = assay: Cytotoxicity against human SF268 cells after 48 hrs by sulforhodamine B assay; assay type: cell-based; settings: sf-268, 48 h
SNB-75 [17] = assay: Cytotoxicity against human SNB75 cells after 48 hrs by sulforhodamine B assay; assay type: cell-based; settings: snb-75, 48 h

Chain of Serine/threonine-protein kinase B-raf (Homo sapiens) (P15056 whole entry): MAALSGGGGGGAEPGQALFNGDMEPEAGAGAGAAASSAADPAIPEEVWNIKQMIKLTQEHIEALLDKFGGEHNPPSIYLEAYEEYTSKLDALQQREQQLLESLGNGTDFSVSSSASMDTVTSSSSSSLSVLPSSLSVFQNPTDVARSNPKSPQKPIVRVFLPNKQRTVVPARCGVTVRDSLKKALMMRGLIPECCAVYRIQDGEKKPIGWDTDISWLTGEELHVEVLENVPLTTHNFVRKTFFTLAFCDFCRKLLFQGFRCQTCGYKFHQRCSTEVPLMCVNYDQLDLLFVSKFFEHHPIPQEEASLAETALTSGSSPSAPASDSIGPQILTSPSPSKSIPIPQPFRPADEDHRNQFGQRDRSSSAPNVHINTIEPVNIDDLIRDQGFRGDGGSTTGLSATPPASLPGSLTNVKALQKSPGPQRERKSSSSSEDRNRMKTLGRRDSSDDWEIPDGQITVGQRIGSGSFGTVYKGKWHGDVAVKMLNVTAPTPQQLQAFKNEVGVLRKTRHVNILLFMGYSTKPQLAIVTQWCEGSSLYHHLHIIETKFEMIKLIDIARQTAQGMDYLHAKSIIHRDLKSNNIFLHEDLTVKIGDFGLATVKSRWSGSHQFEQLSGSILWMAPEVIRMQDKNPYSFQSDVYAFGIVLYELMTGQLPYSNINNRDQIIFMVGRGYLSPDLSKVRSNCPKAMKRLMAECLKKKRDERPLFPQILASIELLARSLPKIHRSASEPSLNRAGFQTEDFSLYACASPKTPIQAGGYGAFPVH
Chain of Serine/threonine-protein kinase B-raf (Homo sapiens), P15056 [V600E] (P15056 whole entry V600E): as the sequence (P15056 whole entry) above, with V600E counted along it
Chain of Platelet-derived growth factor receptor beta (Homo sapiens) (P09619 whole entry): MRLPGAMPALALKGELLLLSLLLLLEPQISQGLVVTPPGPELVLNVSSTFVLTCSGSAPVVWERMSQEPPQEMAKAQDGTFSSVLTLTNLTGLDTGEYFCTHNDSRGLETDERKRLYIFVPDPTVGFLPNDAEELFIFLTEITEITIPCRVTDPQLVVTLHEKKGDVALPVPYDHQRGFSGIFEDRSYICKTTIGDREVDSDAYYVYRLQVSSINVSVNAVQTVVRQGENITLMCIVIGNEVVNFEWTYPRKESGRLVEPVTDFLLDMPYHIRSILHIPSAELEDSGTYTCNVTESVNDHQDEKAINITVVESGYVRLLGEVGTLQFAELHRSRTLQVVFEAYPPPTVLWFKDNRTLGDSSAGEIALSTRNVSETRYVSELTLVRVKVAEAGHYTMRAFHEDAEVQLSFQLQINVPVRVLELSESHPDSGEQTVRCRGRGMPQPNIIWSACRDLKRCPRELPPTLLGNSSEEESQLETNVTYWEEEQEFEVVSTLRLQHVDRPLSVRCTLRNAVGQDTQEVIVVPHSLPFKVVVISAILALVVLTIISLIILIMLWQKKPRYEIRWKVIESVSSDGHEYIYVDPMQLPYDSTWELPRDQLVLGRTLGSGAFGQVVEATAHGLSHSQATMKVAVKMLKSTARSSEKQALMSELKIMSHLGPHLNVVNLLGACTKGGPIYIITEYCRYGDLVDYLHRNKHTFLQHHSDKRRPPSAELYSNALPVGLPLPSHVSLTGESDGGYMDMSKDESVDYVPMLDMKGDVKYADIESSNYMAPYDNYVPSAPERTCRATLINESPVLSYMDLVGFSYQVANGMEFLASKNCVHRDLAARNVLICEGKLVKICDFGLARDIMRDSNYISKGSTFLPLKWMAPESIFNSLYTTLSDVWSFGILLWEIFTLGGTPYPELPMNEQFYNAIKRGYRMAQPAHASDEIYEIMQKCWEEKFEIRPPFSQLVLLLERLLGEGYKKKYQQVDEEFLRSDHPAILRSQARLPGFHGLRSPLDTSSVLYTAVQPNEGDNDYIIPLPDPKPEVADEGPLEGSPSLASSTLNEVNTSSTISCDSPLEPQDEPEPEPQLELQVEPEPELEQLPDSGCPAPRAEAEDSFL
Chain of Cyclin-dependent kinase 8 (Homo sapiens) (P49336 whole entry, canonical isoform): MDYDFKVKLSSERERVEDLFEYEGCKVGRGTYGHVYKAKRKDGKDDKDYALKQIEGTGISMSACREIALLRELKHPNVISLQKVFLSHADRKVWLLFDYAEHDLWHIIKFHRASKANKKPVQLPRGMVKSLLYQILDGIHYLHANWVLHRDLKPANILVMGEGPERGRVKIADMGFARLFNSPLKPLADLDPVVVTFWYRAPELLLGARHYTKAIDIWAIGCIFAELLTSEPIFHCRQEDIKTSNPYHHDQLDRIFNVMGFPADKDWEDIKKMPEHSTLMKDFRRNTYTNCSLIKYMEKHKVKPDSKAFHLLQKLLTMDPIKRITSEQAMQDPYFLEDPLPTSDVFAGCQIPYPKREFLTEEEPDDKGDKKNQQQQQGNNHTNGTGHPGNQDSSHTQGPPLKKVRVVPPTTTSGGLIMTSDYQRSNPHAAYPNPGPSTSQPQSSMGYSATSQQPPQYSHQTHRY
Chain of Receptor-type tyrosine-protein kinase FLT3 (Homo sapiens) (P36888 whole entry): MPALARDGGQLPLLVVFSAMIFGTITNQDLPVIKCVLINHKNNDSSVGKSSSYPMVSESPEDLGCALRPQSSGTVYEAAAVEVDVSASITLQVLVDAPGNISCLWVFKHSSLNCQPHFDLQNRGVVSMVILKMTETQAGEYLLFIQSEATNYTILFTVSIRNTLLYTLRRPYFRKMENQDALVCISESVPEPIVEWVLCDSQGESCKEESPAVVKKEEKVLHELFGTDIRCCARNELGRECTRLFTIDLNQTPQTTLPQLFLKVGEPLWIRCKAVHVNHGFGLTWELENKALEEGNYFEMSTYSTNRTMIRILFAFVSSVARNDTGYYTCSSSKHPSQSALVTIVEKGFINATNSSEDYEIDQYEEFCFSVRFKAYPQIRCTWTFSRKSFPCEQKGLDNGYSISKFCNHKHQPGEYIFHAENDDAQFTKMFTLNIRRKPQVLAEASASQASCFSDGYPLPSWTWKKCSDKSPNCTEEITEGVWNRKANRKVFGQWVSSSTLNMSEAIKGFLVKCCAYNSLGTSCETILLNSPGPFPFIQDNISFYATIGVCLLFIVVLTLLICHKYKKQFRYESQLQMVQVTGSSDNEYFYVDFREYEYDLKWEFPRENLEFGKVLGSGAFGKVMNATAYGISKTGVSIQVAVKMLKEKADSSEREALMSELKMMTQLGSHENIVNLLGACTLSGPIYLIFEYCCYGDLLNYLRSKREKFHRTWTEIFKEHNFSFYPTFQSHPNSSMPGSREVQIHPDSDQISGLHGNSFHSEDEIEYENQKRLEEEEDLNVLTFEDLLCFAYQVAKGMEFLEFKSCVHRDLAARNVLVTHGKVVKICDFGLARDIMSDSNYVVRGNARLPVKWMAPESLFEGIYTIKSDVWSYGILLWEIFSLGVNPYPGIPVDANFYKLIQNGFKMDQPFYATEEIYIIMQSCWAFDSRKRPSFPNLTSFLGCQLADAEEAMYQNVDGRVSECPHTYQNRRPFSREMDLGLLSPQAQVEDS
Chain of Hepatocyte growth factor receptor (P08581 whole entry): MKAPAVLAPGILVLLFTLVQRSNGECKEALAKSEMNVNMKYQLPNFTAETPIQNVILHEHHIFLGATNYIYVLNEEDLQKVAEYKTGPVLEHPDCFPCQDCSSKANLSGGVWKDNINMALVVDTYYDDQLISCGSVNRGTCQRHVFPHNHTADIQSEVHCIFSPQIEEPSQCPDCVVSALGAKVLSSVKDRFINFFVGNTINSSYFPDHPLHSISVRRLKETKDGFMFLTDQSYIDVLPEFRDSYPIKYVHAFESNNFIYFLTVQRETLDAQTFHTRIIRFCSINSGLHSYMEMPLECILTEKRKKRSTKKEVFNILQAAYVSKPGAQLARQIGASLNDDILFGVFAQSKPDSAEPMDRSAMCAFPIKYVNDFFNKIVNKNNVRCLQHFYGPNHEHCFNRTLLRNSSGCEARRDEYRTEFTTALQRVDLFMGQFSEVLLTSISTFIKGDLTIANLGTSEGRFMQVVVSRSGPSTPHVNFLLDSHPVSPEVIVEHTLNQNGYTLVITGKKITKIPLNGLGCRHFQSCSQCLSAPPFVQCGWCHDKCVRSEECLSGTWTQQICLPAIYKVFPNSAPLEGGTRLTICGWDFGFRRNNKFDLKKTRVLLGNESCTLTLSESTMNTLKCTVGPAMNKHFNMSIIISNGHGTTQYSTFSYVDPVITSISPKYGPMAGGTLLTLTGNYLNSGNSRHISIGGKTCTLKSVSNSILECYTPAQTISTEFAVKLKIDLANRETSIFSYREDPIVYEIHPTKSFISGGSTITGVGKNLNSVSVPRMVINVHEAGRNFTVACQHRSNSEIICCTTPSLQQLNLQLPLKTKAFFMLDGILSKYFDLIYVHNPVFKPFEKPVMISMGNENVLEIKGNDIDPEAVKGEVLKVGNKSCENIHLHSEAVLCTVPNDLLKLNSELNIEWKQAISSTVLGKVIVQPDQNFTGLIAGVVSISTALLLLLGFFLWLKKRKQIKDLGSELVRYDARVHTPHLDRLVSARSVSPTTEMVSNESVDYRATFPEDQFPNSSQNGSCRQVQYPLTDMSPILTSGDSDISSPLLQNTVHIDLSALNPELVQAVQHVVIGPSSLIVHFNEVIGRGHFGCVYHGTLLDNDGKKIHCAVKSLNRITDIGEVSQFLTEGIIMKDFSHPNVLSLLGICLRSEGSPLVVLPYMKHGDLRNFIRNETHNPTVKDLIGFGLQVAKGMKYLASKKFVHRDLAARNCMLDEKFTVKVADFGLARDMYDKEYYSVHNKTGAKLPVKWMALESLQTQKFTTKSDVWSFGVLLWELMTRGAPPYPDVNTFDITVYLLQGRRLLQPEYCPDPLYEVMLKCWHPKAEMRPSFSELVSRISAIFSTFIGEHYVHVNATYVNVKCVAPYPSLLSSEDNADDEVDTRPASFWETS
Chain of Casein kinase I isoform alpha (Homo sapiens) (P48729 2-337 limits assumed): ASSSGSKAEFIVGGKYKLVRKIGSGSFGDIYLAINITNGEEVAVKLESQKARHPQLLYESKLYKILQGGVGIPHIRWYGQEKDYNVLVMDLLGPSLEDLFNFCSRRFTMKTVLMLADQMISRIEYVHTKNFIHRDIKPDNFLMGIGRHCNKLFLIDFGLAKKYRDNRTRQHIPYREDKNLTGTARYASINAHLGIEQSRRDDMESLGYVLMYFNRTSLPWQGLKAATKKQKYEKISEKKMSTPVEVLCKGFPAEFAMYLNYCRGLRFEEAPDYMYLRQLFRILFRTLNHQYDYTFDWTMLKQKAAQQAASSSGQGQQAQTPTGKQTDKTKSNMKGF

SMILES | LC50 (SK-MEL-2) [µM] | LC50 (SK-MEL-28) [µM] | LC50 (SK-MEL-5) [µM] | LC50 (OVCAR-4) [µM] | LC50 (OVCAR-5 [1]) [µM] | LC50 (TK-10) [µM] | LC50 (UO-31) [µM] | TGI (A549) [µM] | TGI (HOP-62) [µM] | Activity [2] [%] | Activity [3] [%] | Activity [4] [%] | Activity [5] [%] | Activity [6] [%] | Activity [7] [%] | Activity [8] [%] | TGI (NCI-H522 [9]) [µM] | TGI (COLO 205) [µM] | TGI (HT-29) [µM] | TGI (SNB-75 [10]) [µM] | further results
c1ccc(Cc2cnc(N3CCN(c4ncnc5ccccc45)CC3)nc2)cc1 | 70.3 | > 100 | 37.7 | > 100 | > 100 | > 100 | > 100 | 35.7 | 51.6 | > 50 | > 50 | 3.4 | > 50 | 26 | > 50 | 8.4 | 40.3 | > 100 | 35.1 | 78.2 | TGI (OVCAR-5 [11]): 69.8 µM; TGI (SK-OV-3): > 100 µM; TGI (A498): 24.2 µM; Activity [12]: 4.1%; Activity [13]: 3.5%; TGI (ACHN): 42.4 µM; TGI (T47D): 45.5 µM; LC50 (K562): > 100 µM; Activity [14]: 92%; Activity [15]: 75%; LC50 (NCI-H23): > 100 µM; LC50 (NCI-H522 [16]): > 100 µM; LC50 (HCC 2998): > 100 µM; LC50 (SF-268): > 100 µM; LC50 (SNB-75 [17]): > 100 µM
CCc1cnc(N2CCN(C(=O)c3ccc(CNc4ncnc5ccccc45)cc3)CC2)nc1 | > 100 | > 100 | 20.8 | > 100 | > 100 | > 100 | > 100 | > 100 | > 100 | 34 | 13 | > 50 | 36 | 23 | 18 | > 50 | 55.4 | 38.2 | 83.2 | 58.2 | TGI (OVCAR-5 [11]): > 100 µM; TGI (SK-OV-3): > 100 µM; TGI (A498): > 100 µM; Activity [12]: > 50%; Activity [13]: > 50%; TGI (ACHN): 82.5 µM; TGI (T47D): > 100 µM; LC50 (K562): > 100 µM; Activity [14]: 80%; Activity [15]: 100%; LC50 (NCI-H23): > 100 µM; LC50 (NCI-H522 [16]): > 100 µM; LC50 (HCC 2998): > 100 µM; LC50 (SF-268): > 100 µM; LC50 (SNB-75 [17]): > 100 µM
O=C(c1cccc(Nc2ncnc3ccccc23)c1)N1CCN(c2ncc(Cc3ccccc3)cn2)CC1 | 5.89 | 5.25 | 3.47 | 7.59 | > 100 | 39.81 | 4.37 | 3.09 | 3.47 | > 50 | > 50 | > 50 | > 50 | 22 | 43 | > 50 | 2.09 | 2.75 | 9.33 | 5.89 | TGI (OVCAR-5 [11]): 5.75 µM; TGI (SK-OV-3): 4.47 µM; TGI (A498): 5.37 µM; Activity [12]: > 50%; Activity [13]: 19%; TGI (ACHN): 4.57 µM; TGI (T47D): 7.59 µM; LC50 (K562): > 100 µM; Activity [14]: 87%; Activity [15]: 100%; LC50 (NCI-H23): 6.92 µM; LC50 (NCI-H522 [16]): 5.13 µM; LC50 (HCC 2998): 8.91 µM; LC50 (SF-268): 5.01 µM; LC50 (SNB-75 [17]): > 100 µM
